# In patent US20250090699A1, “FAP TARGETING CYCLIC PEPTIDES AND CONJUGATES THEREOF” (Novartis AG, priority 2023, published 2025):
# Structures can show the parent of a compound that is named as a salt. Starred links: 1 amine or outer side, 2 acyl side, 3 side chain; linkers in the order of their positions; H or OH if unused. Non-standard residues stand in square brackets, D forms with d. Residues, ends and D or L forms follow the SMILES beside them. Primed or numbered codes have the meaning given here. *: point of attachment. F(4amPEG2NHDOTA-Ga) = gallium complex of (S)-2,2',2''-(10-(1-(4-(2-amino-2-carboxyethyl)phenyl)-3,12-dioxo-5,8-dioxa-2,11-diazatridecan-13-yl)-1,4,7,10-tetraazacyclododecane-1,4,7-triyl)triacetic acid (Phe with 4-aminomethyl-PEG2-DOTA-Ga), O=C([O-])CN1CCN(CC(=O)[O-])CCN(CC(=O)NCCOCCOCC(=O)NCc2ccc(C[C@H](N[*:1])C(=O)[*:2])cc2)CCN(CC(=O)[O-])CC1.[Ga+3]; F(4OEtNHDOTA-Lu) = lutetium complex of (S)-2,2',2''-(10-(2-((2-(4-(2-amino-2-carboxyethyl)phenoxy)ethyl)amino)-2-oxoethyl)-1,4,7,10-tetraazacyclododecane-1,4,7-triyl)triacetic acid (Phe with 4-O-ethylamino-DOTA-Lu), O=C([O-])CN1CCN(CC(=O)[O-])CCN(CC(=O)NCCOc2ccc(C[C@H](N[*:1])C(=O)[*:2])cc2)CCN(CC(=O)[O-])CC1.[Lu+3]; COpipzaa″ = 4-(carboxymethyl)piperazine-1-carbonyl on Lys N6, O=C(O)CN1CCN(C(=O)*)CC1; Trp(7-aza) = N[C@@H](Cc1c[nH]c2ncccc12)C(=O)O; Phe(4-CH2NH2) = NCc1ccc(C[C@H](N)C(=O)O)cc1; AEF = NCCOc1ccc(C[C@H](N)C(=O)O)cc1; NMeY = CN[C@@H](Cc1ccc(O)cc1)C(=O)O; Hyp = O=C(O)[C@@H]1C[C@@H](O)CN1; NMeF = CN[C@@H](Cc1ccccc1)C(=O)O; Ahp(2) = CCCCC[C@H](N)C(=O)O; AEEA = NCCOCCOCC(=O)O
# Legend:
# [1] = biological target: T1, human FAP (Homo sapiens, UniProt Q12884); experiment: Enzymatic FAP competition assay (Z-Gly-Pro-AMC fluorescence), human FAP; type: biochemical; conditions: read-out: h. FAP, Enz., IC50
# T1 construct: the biotinylated His, Avi tag, human FAP (26-760, FAP-H82Q6); His; Avi tag (biotinylated); purchased AcroBiosystems FAP-H82Q6
# T1 sequence (Q12884 26-760): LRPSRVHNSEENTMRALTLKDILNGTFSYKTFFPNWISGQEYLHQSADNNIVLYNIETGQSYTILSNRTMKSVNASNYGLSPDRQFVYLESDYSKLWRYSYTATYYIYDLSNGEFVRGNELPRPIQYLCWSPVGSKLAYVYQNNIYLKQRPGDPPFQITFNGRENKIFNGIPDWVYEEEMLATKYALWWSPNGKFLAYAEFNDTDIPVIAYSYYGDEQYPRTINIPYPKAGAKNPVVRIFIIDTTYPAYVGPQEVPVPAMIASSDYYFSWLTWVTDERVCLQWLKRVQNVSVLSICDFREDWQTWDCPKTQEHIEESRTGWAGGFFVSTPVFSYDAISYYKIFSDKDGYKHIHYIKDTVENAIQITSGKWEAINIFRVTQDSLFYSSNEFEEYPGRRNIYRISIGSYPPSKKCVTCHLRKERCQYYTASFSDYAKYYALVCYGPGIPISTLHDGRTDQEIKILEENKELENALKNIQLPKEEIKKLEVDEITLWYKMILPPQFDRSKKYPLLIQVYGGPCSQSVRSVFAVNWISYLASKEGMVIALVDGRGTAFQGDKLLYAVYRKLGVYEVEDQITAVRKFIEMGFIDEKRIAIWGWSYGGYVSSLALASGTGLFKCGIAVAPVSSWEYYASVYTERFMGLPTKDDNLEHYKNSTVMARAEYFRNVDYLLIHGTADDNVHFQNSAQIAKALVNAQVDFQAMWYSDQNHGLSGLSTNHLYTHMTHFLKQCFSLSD
# In short: (§1)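 Biotinylated His/Avi-tagged FAP ectodomain (human 26-760, mouse 26-761) at 0.01 nM, preincubated 24 h with peptides (14 concentrations, up to 1 μM) in pH 7.5 phosphate, 150 mM NaCl, 0.05% Tween20, 1% DMSO. Then 50 μM Z-Gly-Pro-AMC, 4 h at 22-24° C; AMC fluorescence (380/460 nm) gave IC50 from duplicate points.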
# [2] = biological target: T2, mouse FAP (Mus musculus, UniProt P97321); experiment: Surface plasmon resonance (SPR) for peptide affinity, mouse FAP; type: binding
# T2 construct: biotinylated His, Avi tag, mouse FAP (26-761, FAP-M82Q5); His; Avi tag (biotinylated); purchased AcroBiosystems FAP-M82Q5
# T2 sequence (P97321 26-761): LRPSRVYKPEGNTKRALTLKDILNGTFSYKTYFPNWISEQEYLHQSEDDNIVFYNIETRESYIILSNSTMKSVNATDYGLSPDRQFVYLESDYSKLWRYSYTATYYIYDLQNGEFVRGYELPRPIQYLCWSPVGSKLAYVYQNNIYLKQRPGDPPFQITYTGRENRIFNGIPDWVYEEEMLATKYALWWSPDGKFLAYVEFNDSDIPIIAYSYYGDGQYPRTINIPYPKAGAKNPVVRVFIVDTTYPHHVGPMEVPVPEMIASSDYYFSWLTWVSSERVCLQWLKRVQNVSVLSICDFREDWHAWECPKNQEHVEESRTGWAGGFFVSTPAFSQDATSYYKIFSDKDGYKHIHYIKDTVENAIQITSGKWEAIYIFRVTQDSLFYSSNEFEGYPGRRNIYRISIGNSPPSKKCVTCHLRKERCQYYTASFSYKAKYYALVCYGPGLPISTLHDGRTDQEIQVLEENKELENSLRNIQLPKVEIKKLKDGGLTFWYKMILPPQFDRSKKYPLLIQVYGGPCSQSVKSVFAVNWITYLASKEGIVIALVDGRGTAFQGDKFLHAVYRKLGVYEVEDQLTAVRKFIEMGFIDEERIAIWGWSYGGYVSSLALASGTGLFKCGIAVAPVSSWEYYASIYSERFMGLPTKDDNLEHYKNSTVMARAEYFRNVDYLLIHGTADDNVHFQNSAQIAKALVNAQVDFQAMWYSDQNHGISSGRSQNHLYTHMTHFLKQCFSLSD
# In short: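 Biotinylated His/Avi-tagged FAP ectodomains (human 26-760, mouse 26-761) captured or immobilized on Biacore sensor chips; peptides run at 25 °C in HBS-EP+ pH 7.6 with 2% DMSO, single-cycle kinetics, 8 concentrations. KD from 1:1 binding-model fit of sensorgrams.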
# [3] = biological target: T2, mouse FAP; experiment: Enzymatic FAP competition assay (Z-Gly-Pro-AMC fluorescence), mouse FAP; type: biochemical; conditions: read-out: m. FAP, Enz., IC50
# In short: as §1
Molecule,IC50 [1] [nM],Kd [2] [nM],IC50 [3] [nM]
"CCCCC[C@@H]1NC(=O)[C@H](Cc2ccc(O)cc2)NC(=O)[C@H](Cc2ccccc2)N(C)C(=O)CNC(=O)[C@H](CCCCN)NC(=O)[C@H]2CCCN2C(=O)[C@H](CC(=O)O)NC(=O)[C@H](Cc2ccc(O)cc2)NC(=O)CNC(=O)[C@H](Cc2c[nH]c3ncccc23)NC1=O [Example A26, 2-((3S,9S,12S,15S,18S,24S,27S,32aR)-18-((1H-pyrrolo[2,3-b]pyridin-3-yl)methyl)-3-(4-aminobutyl)-9-benzyl-12,24-bis(4-hydroxybenzyl)-8-methyl-1,4,7,10,13,16,19,22,25,28-decaoxo-15-pentyldotriacontahydropyrrolo[1,2-a][1,4,7,10,13,16,19,22,25,28]decaazacyclotriacontin-27-yl)acetic acid TFA salt] (cyclo([Ahp(2)][Trp(7-aza)]GYD[dP]KG[NMeF]Y))",0.47,2.7,1.6
"CCCCC[C@@H]1NC(=O)[C@H](Cc2ccc(O)cc2)NC(=O)[C@H](Cc2ccccc2)N(C)C(=O)CNC(=O)CNC(=O)[C@H]2CCCN2C(=O)[C@H](CC(=O)O)NC(=O)[C@H](Cc2ccc(O)cc2)N(C)C(=O)CNC(=O)[C@H](Cc2c[nH]c3ccccc23)NC1=O [Example A50, 2-((9S,12S,15S,18S,24S,27S,32aR)-18-((1H-indol-3-yl)methyl)-9-benzyl-12,24-bis(4-hydroxybenzyl)-8,23-dimethyl-1,4,7,10,13,16,19,22,25,28-decaoxo-15-pentyldotriacontahydropyrrolo[1,2-a][1,4,7,10,13,16,19,22,25,28]decaazacyclotriacontin-27-yl)acetic acid] (cyclo([Ahp(2)]WG[NMeY]D[dP]GG[NMeF]Y))",0.95,2.8,2.4
"CCCCC[C@@H]1NC(=O)[C@H](Cc2ccc(O)cc2)NC(=O)[C@H](Cc2ccccc2)NC(=O)[C@H](CCC(=O)O)NC(=O)[C@H](CCCCN)NC(=O)[C@H]2CCCN2C(=O)[C@H](CC(=O)O)NC(=O)[C@H](Cc2ccc(O)cc2)NC(=O)CNC(=O)[C@H](Cc2c[nH]c3ccccc23)NC1=O [Example A20, Lys-Glu-Phe-Tyr-Ahp-Trp-Gly-Tyr-Asp-D-Pro] (cyclo([Ahp(2)]WGYD[dP]KEFY))",2.6,8.7,8.7
"CCCCC[C@@H]1NC(=O)[C@H](Cc2ccc(CNC(=O)COCCOCCN)cc2)NC(=O)[C@H](Cc2ccccc2)N(C)C(=O)CNC(=O)CNC(=O)[C@H]2CCCN2C(=O)[C@H](CC(=O)O)NC(=O)[C@H](Cc2ccc(O)cc2)NC(=O)CNC(=O)[C@H](Cc2c[nH]c3ccccc23)NC1=O [Example A27, Gly-Gly-NMePhe-F(4amPEG2NH2)-Ahp-Trp-Gly-Tyr-Asp-D-Pro] (cyclo([Ahp(2)]WGYD[dP]GG[NMeF][Phe(4-CH2NH2)](AEEA)))",0.045,0.219,0.138
"CCCCC[C@@H]1NC(=O)[C@H](Cc2ccc(OCCN)cc2)NC(=O)[C@H](Cc2ccccc2)N(C)C(=O)CNC(=O)[C@@H]2C[C@@H](O)CN2C(=O)[C@H]2CCCN2C(=O)[C@H](CC(=O)O)NC(=O)[C@H](Cc2ccc(O)cc2)NC(=O)CNC(=O)[C@H](Cc2c[nH]c3ccccc23)NC1=O [Example A33, trans4Hyp-Gly-NMePhe-F(4OEtNH2)-Ahp-Trp-Gly-Tyr-Asp-D-Pro] (cyclo([AEF][Ahp(2)]WGYD[dP][Hyp]G[NMeF]))",1,1.1,3.2

# Now from value to molecule:
IC50 [1] [nM],Kd [2] [nM],IC50 [3] [nM],Molecule
0.005,< 0.012,0.016,Gly-Gly-NMePhe-F(4amPEG2NHDOTA-Ga)-Ahp-Trp-Gly-Tyr-Asp-D-Pro (cyclo(GG[NMeF][F(4amPEG2NHDOTA-Ga)][Ahp(2)]WGYD[dP]); also: Ga complex) [Example C49]
0.098,0.34,0.35,K(COpipzaa)-Gly-NMePhe-F(4OEtNHDOTA-Lu)-Ahp-Trp-Gly-Tyr-Asp-D-Pro (cyclo(K(COpipzaa″)G[NMeF][F(4OEtNHDOTA-Lu)][Ahp(2)]WGYD[dP]); also: Lu complex) [Example C25]
